Results as given in patent US7947728B1, “Indole and indazole analogs as glycogen synthase activators” (Hoffmann-La Roche Inc., priority 2009, dated 2011).

Tested on: glycogen synthase
Assay: Glycogen Synthase (GS) Assay
Format: biochemical
Conditions: for EC50: compound concentration needed to give 50% maximum activation; for GS SC200: compound concentration needed to stimulate 200% of the enzyme activity
Method: The following tests were carried out in order to determine the activity of the compounds of formula (I).
Twelve μL per well of substrate solution containing glycogen (4.32 mg/′ml), 2.67 mM UDP-glucose, 21.6 mM phospho(enol)pyruvate and 2.7 mM NADH in 30 mM glycylglycine, pH 7.3 buffer was added into a polystyrene 384-well assay plate (BD Biosciences).
Compound solutions (8 μL/well) at various concentrations (0-300 μM) were added to the assay plate (columns 5-24). Compound solution contains 30 mM glycylglycine, pH 7.3, 40 mM KCl, 20 mM MgCl2, 9.2% DMSO, with (columns 15-24) or without (columns 5-14) 20 mM glucose 6-phosphate.
Enzyme solution (12 μL/well) containing glycogen synthase (16.88 μg/ml), pyruvate kinase (0.27 mg/ml), lactate dehydrogenase (0.27 mg/ml) in 50 mM Tris-HCl, pH 8.0, 27 mM DTT and bovine serum albumin (BSA, 0.2 mg/ml) was added to the assay plate (columns 3-24). As a blank control, enzyme solution without glycogen synthase was added into the top half wells of columns 1-2. To the bottom half wells of columns 1-2 were added a known activator, glucose 6-phosphate (at final concentration 5 mM) in addition to the enzyme solution. The reaction mixture was incubated at room temperature. The assay plate was then read for absorbance at 340 nm on an Envision reader every 3 minutes up to a total of 15 minutes.
The enzyme activity (with or without compound) was calculated by the reaction rate and represented by the optical density change (δOD) per minute. Percent stimulation of glycogen synthase activity by a compound at various concentrations was calculated by the following formula: % stimulation=100*Rs/Rt,
wherein Rs is the reaction rate of the enzyme in the presence of compound and Rt is the reaction rate of the enzyme in the absence of compound.
SC200 is defined as the compound concentration that is needed to stimulate 200% of the enzyme activity. EC50 is defined as the compound concentration that is needed to give 50% maximum activation.

Structure (SMILES)	EC50 [µM]	GS SC200 [µM]
COc1cc(F)c(F)cc1-c1ccc(OCc2cccc3c2cnn3CCC(=O)O)cc1 [Example 2, 3-[4-(4′,5′-Difluoro-2′-methoxy-biphenyl-4-yloxymethyl)-indazol-1-yl]-propionic acid]	26	5.52
COc1cc(F)c(F)cc1-c1ccc(OCc2cccc3c2ccn3C(=O)CC(C)(C)C(=O)O)cc1 [Example 12, 4-[4-(4′,5′-Difluoro-2′-methoxy-biphenyl-4-yloxymethyl)-indol-1-yl]-2,2-dimethyl-4-oxo-butyric acid]	3.04	1.19
COc1cc(F)c(F)cc1-c1ccc(OCc2cccc3c2ccn3CC(=O)O)cc1 [Example 13, [4-(4′,5′-Difluoro-2′-methoxy-biphenyl-4-yloxymethyl)-indol-1-yl]-acetic acid]	3.12	0.43
COc1cc(F)c(F)cc1-c1ccc(OCc2ccc3ccn(CC(=O)O)c3c2)cc1 [Example 8, [6-(4′,5′-Difluoro-2′-methoxy-biphenyl-4-yloxymethyl)-indol-1-yl]-Acetic Acid]	5.16	2
COc1cc(F)c(F)cc1-c1ccc(OCc2ccc3cnn(CCC(=O)O)c3c2)cc1 [Example 5, 3-[6-(4′,5′-Difluoro-2′-methoxy-biphenyl-4-yloxymethyl)-indazol-1-yl]-propionic acid]	1.43	0.28
COc1cc(F)c(F)cc1-c1ccc(OCc2ccc3ccn(C(C)CC(=O)O)c3c2)cc1 (stereo not shown) [Example 9, 3-[6-(4′,5′-Difluoro-2′-methoxy-biphenyl-4-yloxymethyl)-indol-1-yl]-butyric Acid]	2.01	0.41
COc1cc(F)c(F)cc1-c1ccc(OCc2cccc3c2ccn3C(=O)CCC(=O)O)cc1 [Example 11, 4-[4-(4′,5′-Difluoro-2′-methoxy-biphenyl-4-yloxymethyl)-indol-1-yl]-4-oxo-butyric acid]	2.46	0.44
COc1cc(F)c(F)cc1-c1ccc(OCc2cccc3c2ccn3CCC(=O)O)cc1 [Example 14, 3-[4-(4′,5′-Difluoro-2′-methoxy-biphenyl-4-yloxymethyl)-indol-1-yl]-propionic acid]	5.49	1.46
COc1cc(F)c(F)cc1-c1ccc(OCc2ccc3ccn(CCC(=O)O)c3c2)cc1 [Example 7, 3-[6-(4′,5′-Difluoro-2′-methoxy-biphenyl-4-yloxymethyl)-indol-1-yl]-propionic Acid]	3	0.6
COc1cc(F)c(F)cc1-c1ccc(OCc2cccc3c2ccn3C(C)CC(=O)O)cc1 (stereo not shown) [Example 15, 3-[4-(4′,5′-Difluoro-2′-methoxy-biphenyl-4-yloxymethyl)-indol-1-yl]-butyric acid]	6.67	2.29

Further lines, with some results ahead:

EC50 [µM]	Structure (SMILES)	GS SC200 [µM]
18.5	Cn1nc(N)c2cc(COc3ccc(-c4cc(F)c(F)cc4F)cc3)ccc21 [Example 17, Methyl-5-(2′,4′,5′-trifluoro-biphenyl-4-yloxymethyl)-1H-indazol-3-ylamine]	3.9
6.56	COc1cc(F)c(F)cc1-c1ccc(OCc2cccc3[nH]ncc23)cc1 [Example 1, 4-(4′,5′-Difluoro-2′-methoxy-biphenyl-4-yloxymethyl)-1H-indazole]	4.57
3.88	COc1cc(F)c(F)cc1-c1ccc(OCc2cccc3[nH]ccc23)cc1 [Example 10, 4-(4′,5′-Difluoro-2′-methoxy-biphenyl-4-yloxymethyl)-1H-indole]	2.86
6	COc1cc(F)c(F)cc1-c1ccc(OCc2ccc3cn[nH]c3c2)cc1 [Example 3, 6-(4′,5′-Difluoro-2′-methoxy-biphenyl-4-yloxymethyl)-1H-indazole]	3.92
2.79	COc1cc(F)c(F)cc1-c1ccc(OCc2ccc3[nH]nc(N)c3c2)cc1 [Example 16, 5-(4′,5′-Difluoro-2′-methoxy-biphenyl-4-yloxymethyl)-1H-indazol-3-ylamine]	0.6
7	COc1cc(F)c(F)cc1-c1ccc(OCc2ccc3cnn(CC(=O)O)c3c2)cc1 [Example 4, [6-(4′,5′-Difluoro-2′-methoxy-biphenyl-4-yloxymethyl)-indazol-1-yl]-acetic acid]	2.56
5.37	COc1cc(F)c(F)cc1-c1ccc(OCc2ccc3cc[nH]c3c2)cc1 [Example 6, 6-(4′,5′-difluoro-2′-methoxy-biphenyl-4-yloxymethyl)-1H-indole]	5.3
